Reference: patent US20240238268A1, “TREATMENTS AND METHODS FOR TREATING ALZHEIMER'S DISEASE” (Board of Supervisors of Louisiana State University and …, priority 2021, published 2024)

Experiments:
Type in all cases: in vivo, mouse
[1] = tested on: NOTCH1; assay: NOTCH1 protein level in brain, capillary-based immunoassay; conditions: aged 3xTg-AD female mice; TP-064 30 mg/kg, 7 days, IP or AAV knockdown
Protocol: NOTCH1 protein level in cortex, FIG. 13A, and hippocampus, FIG. 13B, was decreased in aged 3xTg-AD female mice v. male counterparts. Treatment with specific PRMT4 specific inhibitor (TP-064, 30 mg/kg, 7 days, IP) or AAV knockdown of PRMT4 enhanced NOTCH1 protein level in cortex, […], and hippocampus, […], in aged 3xTg-AD female mice. Relative NOTCH1 protein (˜110 kDa) level was measured by capillary-based immunoassay and normalized to total protein. * p<0.05 v. control male mice evaluated by unpaired t-test in FIGS. 13A and 13B. * p<0.05 compared to C57, #p<0.05 compared to 3xTg-AD+TP-064, $p<0.05 compared to 3xTg-AD+AAV, evaluated by one-way ANOVA with Tukey's post-hoc analyses in FIGS. 13C and 13D.
FIGS. 16A-16G show NOTCH1 inhibition (via crenigacestat) decreased ZO-1 and occluding and AAV knockdown of PRMT4 enhanced ZO-1 and occludin. […] C57 female mice. FIGS. 16B and 16C show crenigacestat (10 mg/kg, IP, 7 days) reduced NOTCH1 (110 kDa) protein level in the cortex and hippocampus of aged C57 female mice. AAV knockdown of PRMT4 increased NOTCH1 protein level. FIGS. 16D-16G show ZO-1 (220 kDa), and occludin (60 kDa) tight junctional proteins were decreased in the cortex and hippocampus in presence of NOTCH1 inhibitor in C57. PRMT4-AAV increased the expression of ZO-1 and occludin in aged 3xTg-AD female mice. Protein level was measured by capillary-based immunoassay and normalized to total protein. * p<0.05 compared to C57, #p<0.05 compared to 3xTg-AD, $p<0.05 compared to 3xTg-AD+AAV as evaluated by one-way ANOVA with Tukey's post-hoc analyses.
Capillary-phoresis immunoassay via ProteinSimple®: Quantification of all protein targets was achieved using Simple Western analysis in a Jess™ apparatus per the manufacturer's protocol (ProteinSimple, Bio-techne, Minneapolis, MN). […] Following homogenization and centrifugation (10,000×g, 5 min, 4° C.), protein concentration was determined in tissue protein supernatant samples using DC Protein Assay (Cat. No. 5000112, Bio-Rad Laboratories, Hercules, California) according to manufacturer instructions. […] Antibody diluent (ProteinSimple, Bio-techne, Minneapolis, MN) was used for all antibody dilutions as follows: PRMT4 (1:50, RRID: AB_2068436), PRMT6 (1:100, Cell Signaling Technology cat. 14641), eNOS (1:200, RRID: AB_10850618), nNOS (1:100, RRID: AB_2152488), iNOS (1:100, RRID: AB_10000625), DDAH2 (1:50, RRID: AB_2640442) Antibodies were detected using HRP-conjugated secondary anti-rabbit, and -mouse. Relative protein levels were calculated by measuring the area under the peak of a chemiluminescent chromatogram and normalized to total capillary chemiluminescence for a given sample. […]

[2] = tested on: aged 3xTg-AD female mice; assay: Regional cortical cerebral blood flow, laser speckle contrast imaging; conditions: 3xTg-AD mice; 30 mg/kg, IP, 7 days; untreated C57BL/6J = 100%
Protocol: (§1) Surgical Preparation and Anesthetic Procedure: Mice were anesthetized with 4% isoflurane (Cat. No. 21295098, Patterson Veterinary, Greeley, CO) and a mixture of O2 and N2O (30:70) via mask. Hair was shaved at the site of surgery (from the nape up to the eyes). Body temperature was maintained at 37° C. by a rodent heating pad with anal probe as a temperature reference (ThermoStar, RWD Life Science, San Diego, CA). Anesthesia was maintained by lowering isoflurane from 4% to 1%.
(§2) Thinned-skull preparation: Mice were placed in a stereotaxic frame to stabilize the skull and artificial tears (Patterson Veterinary, Greeley, CO) was applied in each eye. Dissection scissors and forceps were used to reveal the skull. A high-speed dental drill (RWD Life Science, San Diego, CA) was used to thin the skull creating a small window (1 mm in diameter) approximately 2 mm rostral and 1 mm lateral to the lambda, with saline irrigation to prevent overheating of the skull tissue. Laser speckle contrast imaging or two-photon laser scanning microscopy analyses were conducted following this preparation.
(§3) Laser speckle contrast imaging: Cerebral microvasculature was imaged by utilizing the thin skull preparation method. After thinning the skull, the mouse was placed in a stereotaxic apparatus. […]

[3] = tested on: C57BL/6J mice; assay: Regional cortical cerebral blood flow, laser speckle contrast imaging, C57 mice
Protocol: as §1, §2, §3

[4] = tested on: aged 3xTg-AD female mice; assay: BBB leakage: 40 kDa FITC-dextran in perivascular space; conditions: 30 min after FITC-dextran
From the text: FIGS. 14A-14C show BBB leakage is reduced with specific PRMT4 inhibitor (TP-064) or AAV knockdown of PRMT4 in aged 3xTg-AD female mice. Aged female 3xTg-AD mice had higher levels of 40 kDa FITC-dextran in the perivascular space v. C57 controls. This was reduced with administration of PRMT inhibitor (TP-064) or AAV knockdown of PRMT4. […] FIG. 14B is a schematic representation of one of the disclosed experimental paradigms. […] C57, #p<0.05 v. 3xTg-AD female, evaluated by one-way ANOVA with Tukey's post-hoc analysis.

## CNCCN1CCC(c2cc(CN(C)C(=O)c3cccc(Oc4ccccc4)c3)ccn2)CC1 [TP-064, N-Methyl-N-((2-(1-(2-(methylamino)ethyl)piperidin-4-yl)pyridin-4-yl)methyl)-3-phenoxybenzamide]
[1]
  NOTCH1 protein level in cortex: enhanced
  NOTCH1 protein level in hippocampus: enhanced
[2]
  regional cortical CBF: 194%±8.6
[3]; C57 mice, decreased PRMT4 via TP-064/PRMT4-AAV
  perfusion: did not affect
[3]; treated C57BL/6J mice, 30 mg/kg, IP, 7 days
  regional cortical CBF: 98.3±10.1%
[4]
  40 kDa FITC-dextran in the perivascular space (BBB leakage): reduced
